Source: ChEMBL document CHEMBL3886519, “Pyrazolo[1,5a]pyrimidine derivatives as IRAK4 modulators” (2016)

Assays:
[1] = molecular target: Interleukin-1 receptor-associated kinase 1 (Homo sapiens, UniProt P51617); assay: (§1) In vitro IRAK-1 and IRAK-4 Assay: Purified recombinant IRAK-4 protein was incubated with 250 uM synthetic peptide([…]) in 30 ul of kinase buffer including (20 mM MOPS pH7.2, 25 mM beta glycerol phosphate, 5 mM EGTA, 1 mM sodium orthovanadate, 1 mM DTT, 50 uM ATP, 20 mM MgCl2, 10 uCi gamma-33P, 0.1% BSA) for the indicated time. For purified recombinant IRAK-1 protein kinase assay, 50 uM ATP was used. A 25 ul aliquot of the reaction mixture was transferred on to p81 phosphocellulose squares (Upstate Biotechnology, Lake Placid, N.Y.). The assay squares were washed three times with 0.75% phosphoric acid and once with acetone. Enzyme activity was measured by determining the bound radioactivity by liquid scintillation counting.
Chain of Interleukin-1 receptor-associated kinase 1 (P51617 whole entry): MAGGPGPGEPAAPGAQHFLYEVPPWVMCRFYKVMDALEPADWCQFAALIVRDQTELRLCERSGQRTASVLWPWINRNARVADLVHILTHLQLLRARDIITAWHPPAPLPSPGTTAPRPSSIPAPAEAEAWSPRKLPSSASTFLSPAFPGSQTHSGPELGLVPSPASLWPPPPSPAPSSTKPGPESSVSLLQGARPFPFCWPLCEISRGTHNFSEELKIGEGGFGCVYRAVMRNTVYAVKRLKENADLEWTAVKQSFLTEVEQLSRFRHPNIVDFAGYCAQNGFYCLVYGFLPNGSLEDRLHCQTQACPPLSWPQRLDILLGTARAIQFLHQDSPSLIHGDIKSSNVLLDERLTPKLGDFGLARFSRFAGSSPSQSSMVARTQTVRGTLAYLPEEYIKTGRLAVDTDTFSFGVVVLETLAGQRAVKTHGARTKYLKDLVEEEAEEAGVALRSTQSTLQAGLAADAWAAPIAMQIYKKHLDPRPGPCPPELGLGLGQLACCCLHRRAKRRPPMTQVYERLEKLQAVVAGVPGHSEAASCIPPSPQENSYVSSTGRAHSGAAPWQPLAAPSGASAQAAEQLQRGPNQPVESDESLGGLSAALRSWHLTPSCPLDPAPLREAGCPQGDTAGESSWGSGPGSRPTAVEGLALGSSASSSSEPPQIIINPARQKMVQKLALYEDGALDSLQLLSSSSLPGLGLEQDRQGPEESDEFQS

[2] = molecular target: T1, Interleukin-1 receptor-associated kinase 4 (Homo sapiens, UniProt Q9NWZ3); assay: as §1
T1 sequence (Q9NWZ3 whole entry): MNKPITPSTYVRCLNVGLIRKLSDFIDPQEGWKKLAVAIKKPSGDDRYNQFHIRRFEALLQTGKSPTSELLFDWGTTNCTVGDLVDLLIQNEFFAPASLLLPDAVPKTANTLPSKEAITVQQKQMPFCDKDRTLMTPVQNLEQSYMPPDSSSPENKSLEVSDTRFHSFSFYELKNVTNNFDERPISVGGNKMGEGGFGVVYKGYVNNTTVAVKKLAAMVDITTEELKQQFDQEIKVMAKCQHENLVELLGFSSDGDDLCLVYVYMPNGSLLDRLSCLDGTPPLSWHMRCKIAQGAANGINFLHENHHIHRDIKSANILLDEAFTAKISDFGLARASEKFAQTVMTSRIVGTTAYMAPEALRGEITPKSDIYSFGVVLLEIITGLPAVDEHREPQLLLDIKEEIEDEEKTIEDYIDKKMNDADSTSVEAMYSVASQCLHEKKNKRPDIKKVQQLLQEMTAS

[3] = molecular target: Tyrosine-protein kinase SYK (Homo sapiens, UniProt P43405); assay: In vitro SYK Kinase Assay: SYK activity is measured by phosphorylation of a peptide substrate (Biotin-[…]) with [gamma-33P] ATP. The enzyme reaction was conducted at 20 uM ATP with 0.05 uCi [gamma-33P]ATP (2 uCi for 40 ul assay) and 10 uM peptide substrate at final volume of 40 ul in buffer containing 50 mM Hepes, pH 7.2, 1 mM dithiothreitol, 10 mM MgCl2, 100 uM Na3VO4, 0.1% BSA and 10% DMSO. The enzyme assay was carried out with human full length SYK in the presence or absence of ten compound concentrations. SYK and compound were pre-incubated for 10 minutes. Then, the enzymatic reaction was initiated by addition of ATP and peptide substrate. The reaction mixture was incubated at room temperature for 30 minutes. At the end of incubation, the reaction was terminated by transferring 25 ul of the reaction mixture to 100 ul of 10% streptavidin slurry containing 100 mM EDTA. The reaction product was captured on the affinity resin and sequentially washed on a filtration plate (Millipore, MABVNOB50) with 2M NaCl, 2M M NaCl in 1% phosphoric acid and water to remove free radio nucleotide. Then the incorporation of 33P into peptide substrate was quantified on a microplate scintillation counter.

SMILES | IC50 [1] [nM] | IC50 [2] [nM] | IC50 [3] [nM]
O=C(Nc1cc2cccnc2cc1O[C@H]1CC[C@@H](O)CC1)c1csc2cncnc12 | 70 | 7 | 
COc1cc2nc(NCCO)ccc2cc1NC(=O)c1csc2cncnc12 | 200 | 10 | 
COc1cc2ncccc2cc1NC(=O)c1csc2cncnc12 |  | 18 | 622
CC(O)C1CCN(c2ccc(Cl)cc2NC(=O)c2cnn3cccnc23)CC1 (stereo not given) | 970 | 5 | 
O=C(Nc1cc2cccnc2cc1OC1CCC(O)CC1)c1csc2cncnc12 (stereo not given) | 123 | 24 | 
O=C(Nc1cc2cccnc2cc1N1CCCCC1)c1csc2cncnc12 |  | 12 | 
O=C(Nc1cc(Cl)ccc1OC1CCC(O)CC1)c1cnn2cc(O)cnc12 (stereo not given) | 163 | 23 | 
COc1cc2ncccc2cc1NC(=O)c1cnn2cc(O)cnc12 | 200 | 9 | 
